Measured values as given in US9487749B2 (priority 2009, dated 2016).
Read-outs that look alike come from different tables or passages of the source.

Key:
[1] = test system: Streptococcus Pyogenes (Lancefield group A); details: 18 h
Streptococcus Pneumonia = details: Streptococcus pneumoniae, 7 h

With `C[S+](C)[O-]` [DMSO, Dimethyl sulfoxide] the “S. pyogenes viability (%)” value ([1]; 5 %) was 96.66%, the “Viability of S. pyogenes (%)” value ([1]; 5 %) was 96.66% and the “S. pyogenes viability (%)” value ([1]; 8 %) was 9.96%. For the same compound, the “Viability of S. pyogenes (%)” value ([1]; 10 %) was 14.50%, the “Viability of S. pyogenes (%)” value ([1]; 20 %) was 5.14% and the “Viability of S. pneumonia” value (Streptococcus Pneumonia; 5 %) was 75.45%. The “Viability of S. pneumonia” value (Streptococcus Pneumonia; 10 %) was 40.18%.
